Test results taken from PubChem BioAssay (NCI).
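All cell lines were grown in 96-well plates and treated with compound for 48 hours. GI50: concentration for 50% inhibition of growth. TGI denotes the concentration required for complete inhibition of growth.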

What was measured:
Test in all cases: NCI anticancer screen, dose series, 48 h
SK-MEL-2 melanoma = system: SK-MEL-2 melanoma
SNB-19 CNS = system: SNB-19 CNS
OVCAR-4 ovarian = system: OVCAR-4 ovarian
NCI-H226 lung = system: NCI-H226 lung
SF-268 CNS = system: SF-268 CNS
ACHN renal = system: ACHN renal
KM12 colon = system: KM12 colon
TK-10 renal = system: TK-10 renal
CAKI-1 renal = system: CAKI-1 renal
RPMI-8226 leukemia = system: RPMI-8226 leukemia
MDA-MB-231 breast = system: MDA-MB-231 breast
RXF 393 renal = system: RXF 393 renal
NCI-H23 lung = system: NCI-H23 lung
U251 CNS = system: U251 CNS
SN12C renal = system: SN12C renal
T-47D breast = system: T-47D breast
SW-620 colon = system: SW-620 colon
SK-MEL-28 melanoma = system: SK-MEL-28 melanoma
SF-539 CNS = system: SF-539 CNS
SK-MEL-5 melanoma = system: SK-MEL-5 melanoma
UACC-62 melanoma = system: UACC-62 melanoma
MDA-MB-435 = system: MDA-MB-435
PC-3 prostate = system: PC-3 prostate
A498 renal = system: A498 renal
DU-145 prostate = system: DU-145 prostate
786-0 renal = system: 786-0 renal
MCF7 breast = system: MCF7 breast
NCI-H522 lung = system: NCI-H522 lung

## CC/C(=C(/c1ccc(O)cc1)c1ccc(OCCNC)cc1)c1ccccc1
SK-MEL-2 melanoma
  GI50: 2080 nM
  TGI: 3.77 µM
SNB-19 CNS
  GI50: 3.12 µM
  TGI: 11.9 µM
OVCAR-4 ovarian
  GI50: 3.32 µM
  TGI: 15.4 µM
NCI-H226 lung
  GI50: 5.03 µM
  TGI: 20.3 µM
SF-268 CNS
  GI50: 2480 nM
  TGI: 7.27 µM
ACHN renal
  GI50: 2640 nM
  TGI: 7.52 µM
KM12 colon
  GI50: 1870 nM
  TGI: 3.83 µM
TK-10 renal
  GI50: 2760 nM
  TGI: 7.76 µM
CAKI-1 renal
  GI50: 2750 nM
  TGI: 8.58 µM
RPMI-8226 leukemia
  GI50: 2050 nM
  TGI: 4.64 µM
MDA-MB-231 breast
  GI50: 1390 nM
  TGI: 3.09 µM
RXF 393 renal
  GI50: 1680 nM
  TGI: 3.69 µM
NCI-H23 lung
  GI50: 2600 nM
  TGI: 7.25 µM
U251 CNS
  GI50: 1540 nM
  TGI: 2930 nM
SN12C renal
  GI50: 2190 nM
  TGI: 5.78 µM
T-47D breast
  GI50: 1340 nM
  TGI: 4.68 µM
SW-620 colon
  GI50: 1720 nM
  TGI: 3.26 µM
SK-MEL-28 melanoma
  GI50: 1710 nM
  TGI: 3.21 µM
SF-539 CNS
  GI50: 1700 nM
  TGI: 3.22 µM
SK-MEL-5 melanoma
  GI50: 1670 nM
  TGI: 3.09 µM
UACC-62 melanoma
  GI50: 1800 nM
  TGI: 3.54 µM
MDA-MB-435
  GI50: 1540 nM
  TGI: 2980 nM
PC-3 prostate
  GI50: 1950 nM
  TGI: 5.45 µM
A498 renal
  GI50: 1640 nM
  TGI: 6.55 µM
DU-145 prostate
  GI50: 2630 nM
  TGI: 6.81 µM
786-0 renal
  GI50: 1640 nM
  TGI: 3.27 µM
MCF7 breast
  GI50: 32.4 nM
  TGI: 2950 nM
NCI-H522 lung
  GI50: 1870 nM
  TGI: 3.68 µM
